Test results from ChEMBL document CHEMBL1201862, “PubChem BioAssay data set” (2004).
Calls of active or inactive are those of the source.

What was measured:
[1] = molecular target: T1, Carboxy-terminal domain RNA polymerase II polypeptide A small phosphatase 1 (Homo sapiens, UniProt Q9GZU7); experiment: CTDSP1 inhibitors, concentration-response, biochemical, absorbance readout, ultra-high-throughput screen actives (AID 540297); type: functional
T1 sequence (Q9GZU7 whole entry): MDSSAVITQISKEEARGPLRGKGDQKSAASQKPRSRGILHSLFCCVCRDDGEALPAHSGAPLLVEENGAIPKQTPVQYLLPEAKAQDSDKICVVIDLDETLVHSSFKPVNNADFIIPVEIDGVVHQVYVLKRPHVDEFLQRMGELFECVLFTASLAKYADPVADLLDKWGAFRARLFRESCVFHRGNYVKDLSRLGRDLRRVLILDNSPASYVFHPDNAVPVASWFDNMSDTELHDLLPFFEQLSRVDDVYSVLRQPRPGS

[2] = molecular target: Glucose-6-phosphate 1-dehydrogenase (Homo sapiens, UniProt P11413); experiment: inhibition of Homo sapiens G6PD, dose series – biochemical, fluorescence, selectivity assay for P. falciparum G6PD inhibitor project, dose response (AID 504792); type: functional
Sequence of Glucose-6-phosphate 1-dehydrogenase (P11413 whole entry): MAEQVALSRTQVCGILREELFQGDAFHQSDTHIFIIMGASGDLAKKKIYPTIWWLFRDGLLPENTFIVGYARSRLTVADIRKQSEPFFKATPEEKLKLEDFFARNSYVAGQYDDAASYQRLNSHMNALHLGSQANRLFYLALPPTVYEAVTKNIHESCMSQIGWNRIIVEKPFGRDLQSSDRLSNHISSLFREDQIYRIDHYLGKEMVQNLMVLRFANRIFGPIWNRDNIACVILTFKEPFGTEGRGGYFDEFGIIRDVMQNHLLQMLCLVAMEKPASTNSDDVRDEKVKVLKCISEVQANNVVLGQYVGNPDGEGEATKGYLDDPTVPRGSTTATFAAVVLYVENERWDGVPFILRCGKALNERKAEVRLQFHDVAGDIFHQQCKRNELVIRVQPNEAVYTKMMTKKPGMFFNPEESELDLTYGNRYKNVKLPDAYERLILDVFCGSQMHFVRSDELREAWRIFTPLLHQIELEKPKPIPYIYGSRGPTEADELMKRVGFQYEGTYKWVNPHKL

[3] = molecular target: T2, Calpain-2 catalytic subunit (Sus scrofa, UniProt P43367); experiment: m-calpain protease blockers, concentration series – biochemical, fluorogenic peptide substrate, dose response (AID 1420); type: functional
T2 sequence (P43367 whole entry): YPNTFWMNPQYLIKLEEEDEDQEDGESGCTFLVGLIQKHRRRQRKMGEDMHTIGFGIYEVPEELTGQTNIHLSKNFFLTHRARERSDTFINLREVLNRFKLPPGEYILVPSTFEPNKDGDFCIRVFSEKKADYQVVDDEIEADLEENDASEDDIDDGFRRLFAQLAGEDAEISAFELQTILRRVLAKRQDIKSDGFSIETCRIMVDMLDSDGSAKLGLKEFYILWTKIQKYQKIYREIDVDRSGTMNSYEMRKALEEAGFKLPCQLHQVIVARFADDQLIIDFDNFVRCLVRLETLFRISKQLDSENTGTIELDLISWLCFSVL

[4] = NIH-3T3 fibroblast cytotoxicity, dose response, cytotoxicity control, cell-based, fluorescence, Alamar Blue, secondary assay (AID 2327); type: functional;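 note: NIH-3T3 mouse fibroblasts cultured with fluconazole at 8 µg/mL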
[5] = fluconazole-exposed Candida albicans growth modulators – fluorescence, retest, confirmation (AID 2467); type: functional, cell-based
[6] = molecular target: FAD-linked sulfhydryl oxidase ALR (Homo sapiens, UniProt P55789); experiment: ALR-catalysed DTT oxidation blockers – biochemical, H2O2 detection, luminescence, cherry-pick, dose response (AID 493248)
Sequence of FAD-linked sulfhydryl oxidase ALR (P55789 whole entry): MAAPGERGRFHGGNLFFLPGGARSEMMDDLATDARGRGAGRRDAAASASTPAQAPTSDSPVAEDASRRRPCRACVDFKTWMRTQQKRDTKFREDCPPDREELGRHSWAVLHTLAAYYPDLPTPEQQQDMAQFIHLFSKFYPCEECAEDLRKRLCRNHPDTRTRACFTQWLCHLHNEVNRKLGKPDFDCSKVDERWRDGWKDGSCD

cells [7] = type: functional, cell-based
cells [8] = type: functional, cell-based; remark: listed apart in the source
Cytochrome P450 2D6 = Cytochrome P450 2D6 (Homo sapiens, UniProt P10635);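 note: CYP2D6 member of a cytochrome P450 panel assay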
Sequence of Cytochrome P450 2D6 (P10635 whole entry): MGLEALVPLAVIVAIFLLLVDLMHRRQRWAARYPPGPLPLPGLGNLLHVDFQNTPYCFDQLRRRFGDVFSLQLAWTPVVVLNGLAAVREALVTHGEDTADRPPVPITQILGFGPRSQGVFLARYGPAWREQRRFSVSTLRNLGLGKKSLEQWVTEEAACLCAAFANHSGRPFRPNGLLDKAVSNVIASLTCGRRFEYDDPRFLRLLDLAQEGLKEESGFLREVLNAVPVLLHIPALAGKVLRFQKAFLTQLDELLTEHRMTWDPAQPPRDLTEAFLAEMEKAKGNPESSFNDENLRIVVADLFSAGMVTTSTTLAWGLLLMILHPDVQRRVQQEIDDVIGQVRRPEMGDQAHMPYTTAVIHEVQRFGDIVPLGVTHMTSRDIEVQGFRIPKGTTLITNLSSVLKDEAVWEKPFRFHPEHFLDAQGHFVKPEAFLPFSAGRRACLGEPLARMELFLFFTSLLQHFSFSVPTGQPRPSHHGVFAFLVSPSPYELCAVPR

[9] = viability of uninfected HEp-2 cells – cell-based, HTS, cytotoxicity control for RSV inhibitor project, dose response (AID 2410); type: functional; conditions: human respiratory syncytial virus
[10] = system: Streptococcus sp. 'group A'; experiment: Streptococcus pyogenes SK(-)GAS viability under kanamycin – luminescence, BacTiterGlo, confirmation, counter-screen for streptokinase expression inhibitor project, dose response (AID 1900); type: functional, organism-based
[11] = molecular target: T3, Heat shock factor protein 1 (Mus musculus, UniProt P38532); experiment: decrease of HSF1-responsive luciferase luminescence – cell-based, NIH3T3, dose retest, confirmation (AID 2382); type: functional;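 note: NIH3T3 fibroblasts with HSF1-driven luciferase reporter stressed by proteasome inhibitor MG132; luminescence from HSF1-driven luciferase expression after 8 hours of MG132 stress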
T3 sequence (P38532 whole entry): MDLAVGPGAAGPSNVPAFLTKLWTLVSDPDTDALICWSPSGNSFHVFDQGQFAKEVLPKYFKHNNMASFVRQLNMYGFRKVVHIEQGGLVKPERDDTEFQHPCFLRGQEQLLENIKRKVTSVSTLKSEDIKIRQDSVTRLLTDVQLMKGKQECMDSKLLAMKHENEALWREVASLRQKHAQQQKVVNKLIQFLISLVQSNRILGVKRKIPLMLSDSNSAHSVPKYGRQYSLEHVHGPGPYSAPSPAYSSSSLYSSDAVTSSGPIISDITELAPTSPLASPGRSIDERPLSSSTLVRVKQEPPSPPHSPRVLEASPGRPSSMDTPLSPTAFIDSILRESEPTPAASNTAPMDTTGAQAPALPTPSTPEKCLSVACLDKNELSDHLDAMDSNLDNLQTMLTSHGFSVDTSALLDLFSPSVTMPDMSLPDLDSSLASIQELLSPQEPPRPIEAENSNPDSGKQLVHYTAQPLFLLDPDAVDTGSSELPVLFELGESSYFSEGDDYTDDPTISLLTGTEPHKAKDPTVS

Streptokinase A = molecular target: T4, Streptokinase A (Streptococcus pyogenes serotype M1, UniProt P10520); experiment: viability-normalized secreted streptokinase activity reduction – plasminogen activation absorbance, OD405, dose response (AID 1914); type: functional, Streptococcus pyogenes M1 GAS;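 note: secreted streptokinase activity via plasminogen activation per viability signal from cell pellet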
T4 sequence (P10520 whole entry): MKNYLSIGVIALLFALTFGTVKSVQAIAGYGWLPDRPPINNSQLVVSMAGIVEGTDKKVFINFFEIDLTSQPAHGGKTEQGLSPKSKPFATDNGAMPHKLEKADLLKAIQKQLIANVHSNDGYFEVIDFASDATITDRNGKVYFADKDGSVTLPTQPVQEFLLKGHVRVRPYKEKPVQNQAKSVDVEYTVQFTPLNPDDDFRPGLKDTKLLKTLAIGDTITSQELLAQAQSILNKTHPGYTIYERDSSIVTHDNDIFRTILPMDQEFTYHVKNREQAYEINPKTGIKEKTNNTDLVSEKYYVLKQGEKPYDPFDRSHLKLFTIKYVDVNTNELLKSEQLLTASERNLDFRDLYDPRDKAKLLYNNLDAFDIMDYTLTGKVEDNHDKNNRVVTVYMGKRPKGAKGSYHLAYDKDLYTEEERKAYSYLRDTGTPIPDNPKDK

[12] = Trypanosoma cruzi growth suppression in host cells – NIH3T3 host cells, beta-gal luminescence, confirmation (AID 2044); type: functional, cell-based;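 note: intracellular parasites grown in NIH/3T3 mouse fibroblasts as host cells; luminescent beta-galactosidase reporter signal from transgenic T. cruzi replicating inside host cells; inhibitors lower the luminescence signal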
[13] = NIH3T3 cell viability loss – ATP luminescence, mouse fibroblasts, counter-screen, dose response (AID 2010); type: functional, cell-based;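 note: cells exposed to compound for about 90 hours before reading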
Streptococcus = experiment: GAS UMAA2166 growth inhibition – luminescence, BacTiterGlo, counter-screen for streptokinase expression inhibitor project, dose response (AID 1915); type: functional, organism-based;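 note: potency for reduction of bacterial viability or growth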
[14] = reduction of Shn3 3'UTR-driven luciferase in osteoblasts – cell-based, Clone20 osteoblasts, firefly luciferase, cherry-picked, dose response (AID 624132); type: functional;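 note: firefly luciferase luminescence from reporter carrying the Shn3 3'UTR in osteoblasts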
[15] = loss of viability in HepG2 cells – cell-based, CellTiter-Glo, cherry-picked, cytotoxicity control for Shn3 inhibitor project, dose response (AID 624134); type: functional
[16] = non-specific 3'UTR reporter inhibition in Clone20-Shn3RL – cell-based, Renilla luciferase, cherry-picked, counter-screen for Shn3 inhibitor project, dose response (AID 624133); type: functional
Paired box protein Pax-8 = Paired box protein Pax-8 (Homo sapiens, UniProt Q06710); experiment: PAX8 transcriptional activity inhibition in RMG-I – RMG-I cells, luciferase, cherry-pick, dose response (AID 687027); type: functional, cell-based;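 note: luciferase reporter driven by Pax8 target thyroperoxidase promoter measured by SteadyGlo luminescence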
Sequence of Paired box protein Pax-8 (Q06710 whole entry): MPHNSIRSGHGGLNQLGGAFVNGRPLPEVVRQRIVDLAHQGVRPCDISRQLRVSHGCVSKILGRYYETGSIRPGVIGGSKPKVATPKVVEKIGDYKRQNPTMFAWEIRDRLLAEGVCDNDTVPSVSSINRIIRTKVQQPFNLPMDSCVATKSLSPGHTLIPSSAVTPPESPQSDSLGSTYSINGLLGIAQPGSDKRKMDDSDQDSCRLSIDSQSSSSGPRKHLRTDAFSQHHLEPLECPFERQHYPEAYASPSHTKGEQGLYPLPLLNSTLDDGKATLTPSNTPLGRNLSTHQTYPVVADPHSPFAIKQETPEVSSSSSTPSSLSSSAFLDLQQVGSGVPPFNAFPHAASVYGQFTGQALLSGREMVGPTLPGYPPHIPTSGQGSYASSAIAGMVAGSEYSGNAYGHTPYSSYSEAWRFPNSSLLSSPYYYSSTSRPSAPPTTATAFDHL

## Cc1oc2c(C)c3oc(=O)c(CC(=O)N[C@@H](CCCNC(N)=O)C(=O)O)c(C)c3cc2c1C
[1]
  IC50: 9.59 µM (active)

## CCn1c(N)c(C(=O)NC)sc1=S
[2]
  IC50: > 80 µM (inactive)

## CCn1c(SCc2ccc(F)cc2)nnc1C1CCN(S(=O)(=O)c2ccc(OC)cc2)CC1
[3]
  IC50: 26.2 µM (not active)

## CCn1c(=O)c(C(=O)NCc2cccnc2)c(O)c2ccccc21
[4]
  EC50: > 150 µM (inactive)
[5]
  EC50: > 38 µM (not active)

## COc1ccc(OC)c(NC(=O)c2ccc3c(=O)n(CCc4ccccc4)c(=S)[nH]c3c2)c1
[3]
  IC50: 13 µM (not active)

## O=C(CNC(=O)c1ccccc1)NCC(=O)OCC(=O)c1ccc([N+](=O)[O-])cc1
[2]
  IC50: > 80 µM (inactive)

## COc1ccc(NC(=O)NC(C)c2ccccc2)cc1 (stereo not given)
[4]
  EC50: 73.5 µM (active)
[5]
  EC50: > 38 µM (not active)

## CCCc1cc(C(=O)Nc2sc3c(c2C#N)CCC3)no1
[4]
  EC50: > 150 µM (inactive)
[5]
  EC50: 1.02 µM (active)

## COc1ccc2c(c1OC)C(=O)N1N=C(c3ccc(O)cc3)CC21 (stereo not given)
[4]
  EC50: > 150 µM (inactive)
[6]
  AC50: 1.11 µM (active)

## C[N+]1(CC(=O)OCCCc2ccccc2)CCCC1
[1]
  IC50: 6.36 µM (active)

## CCc1ccc(NC(=O)C[S+]([O-])CC(=O)Nc2ccc(F)cc2F)cc1 (stereo not given)
[1]
  IC50: 11.2 µM (active)

## CCC(C)c1ccccc1OCCn1ccnc1 (stereo not given)
[2]
  IC50: > 80 µM (inactive)

## Cc1cc(=O)oc2cc(OCC(=O)N3c4ccccc4NC(=O)C3(C)C)ccc12
[1]
  IC50: 8.21 µM (active)

## Cc1cc(C(=O)O)oc(=O)c1
Cells [7]
  EC50: > 350 µM (not active)
Cells [8]
  EC50: 58.9 µM (active)

## CCCCn1c(N)c(-c2nc3ccccc3o2)c2c([N+](=O)[O-])nn(C)c(=O)c21
[1]
  IC50: 4.75 µM (active)

## Cc1ccc(CSc2ccc3nnc(-c4cccnc4)n3n2)cc1
[3]
  IC50: 5.64 µM (active)

## COc1ccc(CNC(=O)C2CCN(S(=O)(=O)c3ccc(-c4nn[nH]n4)cc3)CC2)cc1
[3]
  IC50: 14.9 µM (not active)

## O=C(Nc1ccccc1N1CCOCC1)c1cc(F)cc(F)c1
[4]
  EC50: > 160 µM (inactive)
[5]
  EC50: 1.64 µM (active)

## COc1cccc(C2=CC(c3ccccc3)n3nnnc3N2)c1 (stereo not given)
[3]
  IC50: 2.32 µM (not active)
Cytochrome P450 2D6
  AC50: 31.6 µM (inconclusive)

## COc1ccc2c(c1)-c1nc(NC(=O)c3ccco3)sc1CC2
[9]
  CC50: 18.4 µM (active)
Cells [7]
  EC50: > 350 µM (not active)
Cells [8]
  EC50: 23 µM (active)

## Cc1ccc(C)c(N2CCN(C(=O)CCCCCn3c(=S)[nH]c4ccc(N5CCOCC5)cc4c3=O)CC2)c1
[10]
  EC50: 6.52 µM (active)
[11]
  EC50: 5.28 µM (active)
Streptokinase A
  EC50: > 150 µM (not active)
[12]
  EC50: 0.348 µM (active)
[13]
  EC50: 16.5 µM (active)
Streptococcus
  EC50: 140 µM (active)
[14]
  AC50: 1.99 µM (active)
[15]
  AC50: 5.02 µM (active)
[16]
  AC50: 3.48 µM (active)
Paired box protein Pax-8
  AC50: 5.97 µM (active)

## CC(=O)Nc1ccc(S(=O)(=O)[N-]C2=C([n+]3ccn(-c4ccccn4)c3)C(=O)c3ccccc3C2=O)cc1
Cells [7]
  EC50: > 350 µM (not active)
Cells [8]
  EC50: > 350 µM (not active)

## CC(C)NC(=O)C1CCCN(S(C)(=O)=O)C1 (stereo not given)
[3]
  IC50: 7.4 µM (not active)

## Cc1ccc(OCC(=O)NNC(=O)C(C)Sc2ncnc3sc(C)c(C)c23)cc1 (stereo not given)
[3]
  IC50: 2.51 µM (not active)

## C=C(C)CNC(=S)N/N=C/c1c(F)cccc1F
[3]
  IC50: 20.3 µM (not active)

## COc1cccc(-c2c(C(=O)N/N=C/c3ccc(C)o3)nnn2-c2nonc2N)c1
[2]
  IC50: > 80 µM (inactive)
